From patent US11274332B2, “Methods of administering 3,4-diaminopyridine” (SERB SA, priority 2011, dated 2022)

Target: T1, cloned human Kv1.2 potassium channel (Homo sapiens, UniProt P16389)
T1 construct: expressed in transfected cells
Assay: PatchXpress inhibition of cloned human Kv1.2 in HEK293 cells (Example 6)
Format: cell-based
Conditions: hKv1.2, up to 3000 μM
Description: The objective of this study was to examine the in vitro effects and determine the […] of 3,4-DAP phosphate and the metabolite N-(4-aminopyridin-3-yl) acetamide HCl on the following ion channels: cloned human Kv1.1 potassium channel (encoded by the human KCNA1 gene, expressed in HEK293 cells), cloned human Kv1.2 potassium channel (encoded by the human KCNA2 gene, expressed in HEK293 cells), cloned human Kv1.3 potassium channel (encoded by the human KCNA3 gene, expressed in CHO cells), cloned human Kv1.4 potassium channel (encoded by the human KCNA4 gene, expressed in HEK293 cells), cloned human Kv1.5 potassium channel (encoded by the human KCNA5 gene and expressed in CHO cells), responsible for IKur, ultra-rapid delayed rectifier potassium current.
Chemicals used in solution preparation were purchased from Sigma-Aldrich (St. Louis, Mo.), unless otherwise noted, and were of ACS reagent grade purity or higher. Stock solutions of each test article (100 mM, 30 mM and 1.00 mM 3,4-DAP phosphate and 100 mM N-(4-aminopyridin-3-yl)acetamide) were prepared in sterile water and stored refrigerated. […]
In preparation for a recording session, intracellular solution was loaded into the intracellular compartments of the Sealchip16. […] After establishment of a whole-cell configuration, membrane currents were recorded using dual-channel patch clamp amplifiers in the PatchXpress®. […]

T1 sequence (P16389 whole entry): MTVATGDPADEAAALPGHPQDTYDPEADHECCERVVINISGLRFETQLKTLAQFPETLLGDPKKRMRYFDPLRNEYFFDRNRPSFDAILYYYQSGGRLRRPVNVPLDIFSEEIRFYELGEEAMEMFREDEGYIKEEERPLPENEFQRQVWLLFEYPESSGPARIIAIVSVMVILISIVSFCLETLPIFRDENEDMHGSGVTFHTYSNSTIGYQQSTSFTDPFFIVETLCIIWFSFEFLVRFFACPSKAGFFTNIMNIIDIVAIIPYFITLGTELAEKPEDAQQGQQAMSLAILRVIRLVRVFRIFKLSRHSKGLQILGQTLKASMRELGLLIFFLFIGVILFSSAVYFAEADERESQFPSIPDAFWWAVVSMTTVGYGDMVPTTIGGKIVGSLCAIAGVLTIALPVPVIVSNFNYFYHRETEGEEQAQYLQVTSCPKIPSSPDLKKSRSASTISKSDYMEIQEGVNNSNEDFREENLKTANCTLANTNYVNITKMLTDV

Structure (SMILES): CC(=O)Nc1cnccc1N [3-N-acetyl amifampridine, N-(4-aminopyridin-3-yl)acetamide]
- activity on K+ channel: inactive
- activity on K+ channel (listed as N-acetyl metabolite): not active
